# Read-outs that look alike come from different tables or passages of the source.
# Assays:
# [1] = Pharmacokinetic analysis of multiple doses of sepiapterin (once daily, 7 days, fed subjects); assay type: in vivo
# Text: Methods: Three cohorts of eight fed subjects each were randomized to receive once-daily sepiapterin or placebo for 7 days in a 6:2 ratio. A sentinel dose strategy was also used for administration of the highest sepiapterin dose.
# [2] = assay type: in vivo
# Procedure: Method: Twelve subjects were given a single dose (10 mg/kg) of sepiapterin under fasting conditions and then 7 days later under fed conditions. Standard definitions of adverse events (AE) were used. All-cause AE were those that occurred at any time; treatment-emergent adverse events (TEAE) were those that occurred at or after the time of administration of study treatment. TEAEs related to study drug were based on the opinion of the investigator. Serious AE were defined as life threatening or caused death, hospitalization or prolongation of existing hospitalization, or were a persistent or significant disability/incapacity or a substantial disruption of the ability to conduct normal life functions, or a congenital anomaly/birth defect.
# [3] = Pharmacokinetic parameters for BH4 after single dose of sepiapterin or BH4 in fasted subjects; assay type: in vivo
# Procedure: Six subjects received sepiapterin in each group and three subjects received BH4 in each group where this treatment was administered.
# Values shown are means of plasma concentrations of BH4 following administration at the doses shown.
# [4] = Food effect on administration of sepiapterin: plasma sepiapterin and BH4, fasted vs fed; assay type: in vivo; conditions: sepiapterin 10 mg/kg oral
# Procedure: Method: Subjects received two oral doses of sepiapterin (10 mg/kg) separated by one week in a fasted and fed state. Subjects were fed a standard high-fat (approximately 50 percent of total caloric content of the meal) and high-calorie (approximately […] calories) meal starting 30 minutes prior to receiving their second oral dose of sepiapterin on Day 8.
# Sampling for PK analysis occurred predose on Days 1 and 8 (within 30 minutes before dosing) and 0.5 hr, 1 hr, 2 hr, 4 hr, 8 hr, 12 hr, and 24 hr after the doses on Days 1 and 8. The blood concentrations of sepiapterin and BH4 were analyzed by MNG Labs.
# [5] = CSF levels of sepiapterin, BH4, BH2, HVA and 5-HIAA after administration of sepiapterin; assay type: in vivo
# Procedure: The cerebrospinal fluid (CSF) of selected subjects was collected via lumbar puncture on Day1 (before dose) and on Day 7 (i.e., following daily dosing for 7 days) approximately 30 minutes from time of the maximum observed plasma BH4 concentration (Tmax) as determined from the blood analysis. The cerebral spinal fluid (CSF) was analyzed. Descriptive statistics are provided to characterize any changes in neurotransmitter metabolism between the Day 1, and Day 7 sample results. Method: Analyses were conducted in CSF samples of subjects administered 60 mg/kg sepiapterin or placebo. The following analytes were measured: sepiapterin, BH4, BH2, homovanillic acid (HVA), and 5-hydroxyindoleacetic acid (HIAA). Descriptive (n, mean, SD, median, minimum, maximum) statistics for these analytes at Day 1 and Day 7+/−30 minutes from Tmax and change from baseline at Day 7 were determined for each analyte.
# [6] = human, plasma, po, 5 mg/kg, sepiapterin 5 mg/kg once daily, Day 1
# [7] = human, plasma, po, 5 mg/kg, sepiapterin 5 mg/kg once daily, Day 7
# [8] = human, plasma, po, 20 mg/kg, sepiapterin 20 mg/kg once daily, Day 1
# [9] = human, plasma, po, 20 mg/kg, sepiapterin 20 mg/kg once daily, Day 7
# [10] = human, plasma, po, 60 mg/kg, sepiapterin 60 mg/kg once daily, Day 1
# [11] = human, plasma, po, 60 mg/kg, sepiapterin 60 mg/kg once daily, Day 7
# [12] = 60 mg/kg sepiapterin arm, Day 1 (before dose)
# [13] = 60 mg/kg sepiapterin, Day 7, +/-30 minutes from BH4 Tmax
# [14] = 60 mg/kg sepiapterin, Day 7, same subject
# [15] = Day 1 pre-dose, one subject with low baseline
structure (smiles),measurement,setting,value
C[C@H](O)C(=O)C1=Nc2c(nc(N)[nH]c2=O)NC1 [sepiapterin],Cmax,[1]; [6],0.6 ng/mL
same,Tmax,[1]; [6],3 h
same,AUC(0-inf),"[1]; human, plasma, po, 5 mg/kg, sepiapterin 5 mg/kg once daily, Day 1, read-out: AUC0-inf of sepiapterin",1 ng·h/mL
same,Cmax,[1]; [7],0.6 ng/mL
same,Tmax,[1]; [7],3 h
same,AUC(0-inf),"[1]; human, plasma, po, 5 mg/kg, sepiapterin 5 mg/kg once daily, Day 7, read-out: AUC0-inf of sepiapterin",0.7 ng·h/mL
same,Cmax,[1]; [8],1.2 ng/mL
same,Tmax,[1]; [8],2.6 h
same,AUC(0-inf),"[1]; human, plasma, po, 20 mg/kg, sepiapterin 20 mg/kg once daily, Day 1, read-out: AUC0-inf of sepiapterin",3.9 ng·h/mL
same,Cmax,[1]; [9],1.3 ng/mL
same,Tmax,[1]; [9],2.7 h
same,AUC(0-inf),"[1]; human, plasma, po, 20 mg/kg, sepiapterin 20 mg/kg once daily, Day 7, read-out: AUC0-inf of sepiapterin",4.3 ng·h/mL
same,Cmax,[1]; [10],2.7 ng/mL
same,Tmax,[1]; [10],3.3 h
same,AUC(0-inf),"[1]; human, plasma, po, 60 mg/kg, sepiapterin 60 mg/kg once daily, Day 1, read-out: AUC0-inf of sepiapterin",21.2 ng·h/mL
same,Cmax,[1]; [11],2.8 ng/mL
same,Tmax,[1]; [11],3 h
same,AUC(0-inf),"[1]; human, plasma, po, 60 mg/kg, sepiapterin 60 mg/kg once daily, Day 7, read-out: AUC0-inf of sepiapterin",16 ng·h/mL
same,AUC(0-t),"[1]; human, plasma, po, sepiapterin 60 mg/kg once daily, Day 1, read-out: AUC0-24 of sepiapterin",23 ng·h/mL
same,Drug accumulation (plasma sepiapterin and BH4 after 1 and 7 days of treatment),[1]; once daily for 7 days,no drug accumulation
same,TEAE,"[2]; human, in vivo, 10 mg/kg",4
same,TEAE related to study drug,"[2]; human, in vivo, 10 mg/kg",1
same,≥1 AE,"[2]; human, in vivo, 10 mg/kg",5
same,"Incidence of adverse events, fed compared to fasted subjects",[2]; single dose 10 mg/kg,decreased incidence of adverse events
same,"AUC0-24 and AUC0-inf of BH4, subjects administered sepiapterin compared to subjects administered BH4",[3],much higher
same,concentration at 0 h,"[4]; human, plasma, fasted, 0 h (predose), read-out: Sepiapterin Concentration in Plasma, Maximum",0 nM
same,concentration at 0.5 h,"[4]; human, plasma, fasted, 0.5 h, read-out: Sepiapterin Concentration in Plasma, Minimum",0 nM
same,concentration at 4 h,"[4]; human, plasma, fasted, 4 h, read-out: Sepiapterin Concentration in Plasma, Minimum",0 nM
same,concentration at 8 h,"[4]; human, plasma, fasted, 8 h, read-out: Sepiapterin Concentration in Plasma, Maximum",0 nM
same,concentration at 12 h,"[4]; human, plasma, fasted, 12 h, read-out: Sepiapterin Concentration in Plasma, Maximum",0 nM
same,concentration at 24 h,"[4]; human, plasma, fasted, 24 h, read-out: Sepiapterin Concentration in Plasma, Maximum",0 nM
same,concentration at 1 h,"[4]; human, plasma, fed, 1 h, read-out: Sepiapterin Concentration in Plasma, Minimum",0 nM
same,concentration at 2 h,"[4]; human, plasma, fed, 2 h, read-out: Sepiapterin Concentration in Plasma, Minimum",0 nM
same,"Cmax of BH4 in the plasma, fed compared to fasted",[4],much higher
same,"Cmax of sepiapterin in the plasma, fed compared to fasted",[4],much lower
same,"Geometric mean ratio (fasted/fed, 90% CI) for plasma sepiapterin AUClast",[4],1.29 (0.84 to 2.00)
same,"Geometric mean ratio (fasted/fed, 90% CI) for plasma sepiapterin Cmax",[4],1.57 (1.21 to 2.0)
same,"Sepiapterin Concentration in Plasma, Mean","[4]; fasted, 0 h (predose)",0 nM
same,"Sepiapterin Concentration in Plasma, Median","[4]; fasted, 0 h (predose)",0 nM
same,concentration at 2 h,"[4]; fasted, 0 h (predose), read-out: Sepiapterin Concentration in Plasma, Minimum",0 nM
same,"Sepiapterin Concentration in Plasma, Mean","[4]; fasted, 8 h",0 nM
same,"Sepiapterin Concentration in Plasma, Median","[4]; fasted, 8 h",0 nM
same,concentration at 2 h,"[4]; fasted, 8 h, read-out: Sepiapterin Concentration in Plasma, Minimum",0 nM
same,"Sepiapterin Concentration in Plasma, Mean","[4]; fasted, 12 h",0 nM
same,"Sepiapterin Concentration in Plasma, Median","[4]; fasted, 12 h",0 nM
same,concentration at 2 h,"[4]; fasted, 12 h, read-out: Sepiapterin Concentration in Plasma, Minimum",0 nM
same,"Sepiapterin Concentration in Plasma, Mean","[4]; fasted, 24 h",0 nM
same,"Sepiapterin Concentration in Plasma, Median","[4]; fasted, 24 h",0 nM
same,concentration at 2 h,"[4]; fasted, 24 h, read-out: Sepiapterin Concentration in Plasma, Minimum",0 nM
same,"Sepiapterin Concentration in Plasma, Mean","[4]; fed, 0 h (predose)",0 nM
same,"Sepiapterin Concentration in Plasma, Median","[4]; fed, 0 h (predose)",0 nM
same,concentration at 24 h,"[4]; fed, 0 h (predose), read-out: Sepiapterin Concentration in Plasma, Maximum",0 nM
same,concentration at 2 h,"[4]; fed, 0 h (predose), read-out: Sepiapterin Concentration in Plasma, Minimum",0 nM
same,"Sepiapterin Concentration in Plasma, Median","[4]; fed, 0.5 h",0 nM
same,concentration at 2 h,"[4]; fed, 0.5 h, read-out: Sepiapterin Concentration in Plasma, Minimum",0 nM
same,concentration at 2 h,"[4]; fed, 4 h, read-out: Sepiapterin Concentration in Plasma, Minimum",0 nM
same,"Sepiapterin Concentration in Plasma, Median","[4]; fed, 8 h",0 nM
same,concentration at 2 h,"[4]; fed, 8 h, read-out: Sepiapterin Concentration in Plasma, Minimum",0 nM
same,"Sepiapterin Concentration in Plasma, Mean","[4]; fed, 12 h",0 nM
same,"Sepiapterin Concentration in Plasma, Median","[4]; fed, 12 h",0 nM
same,concentration at 24 h,"[4]; fed, 12 h, read-out: Sepiapterin Concentration in Plasma, Maximum",0 nM
same,concentration at 2 h,"[4]; fed, 12 h, read-out: Sepiapterin Concentration in Plasma, Minimum",0 nM
same,"Sepiapterin Concentration in Plasma, Mean","[4]; fed, 24 h",0 nM
same,"Sepiapterin Concentration in Plasma, Median","[4]; fed, 24 h",0 nM
same,concentration at 24 h,"[4]; fed, 24 h, read-out: Sepiapterin Concentration in Plasma, Maximum",0 nM
same,concentration at 2 h,"[4]; fed, 24 h, read-out: Sepiapterin Concentration in Plasma, Minimum",0 nM
same,5-HIAA Mean Concentration in CSF,[5]; [12],14.6 ng/mL
same,HVA Mean Concentration in CSF,[5]; [12],32.3 ng/mL
same,Sepiapterin Mean Concentration in CSF,[5]; [12],0 ng/mL
same,Sepiapterin in the CSF,"[5]; 60 mg/kg sepiapterin, Day 1 or Day 7 +/-30 minutes from BH4 Tmax",not detected
same,Change in CSF concentration of 5-HIAA relative to Day 1,"[5]; 60 mg/kg sepiapterin, Day 7",-1.142 ng/mL
same,5-HIAA Mean Concentration in CSF,[5]; [13],13.4 ng/mL
same,HVA Mean Concentration in CSF,[5]; [13],33.7 ng/mL
same,Sepiapterin Mean Concentration in CSF,[5]; [13],0 ng/mL
same,Change in CSF concentration of HVA relative to Day 1,"[5]; 60 mg/kg sepiapterin, Day 7, increase",1.378 ng/mL
same,"CSF 5-HIAA concentration, one subject",[5]; [14],9.53 ng/mL
same,"CSF HVA concentration, one subject",[5]; [14],29.93 ng/mL
same,"CSF 5-HIAA concentration, one subject",[5]; [15],3.69 ng/mL
same,"CSF HVA concentration, one subject",[5]; [15],10.02 ng/mL

# Reference: patent US20230110351A1, “METHODS FOR TREATING PARKINSON'S DISEASE WITH SEPIAPTERIN” (PTC Therapeutics MP, Inc., priority 2020, published 2023)
